Counter-ions that a name gives are not always drawn.
Tests used:
[1] = biological target: T1, NPY2 receptors (Homo sapiens, UniProt P49146); assay: Neuropeptide Y receptor binding assay (125I-PYY, KAN-TS cell membranes); conditions: 10 μM compound; for inhibition at 10 µM: read-out: NPY-2@10, % Inh
T1 construct: Cell Membranes from KAN-TS cells having NPY2 receptors; endogenous in cells; host or cells: KAN-TS cells (membranes)
T1 sequence (P49146 1-381): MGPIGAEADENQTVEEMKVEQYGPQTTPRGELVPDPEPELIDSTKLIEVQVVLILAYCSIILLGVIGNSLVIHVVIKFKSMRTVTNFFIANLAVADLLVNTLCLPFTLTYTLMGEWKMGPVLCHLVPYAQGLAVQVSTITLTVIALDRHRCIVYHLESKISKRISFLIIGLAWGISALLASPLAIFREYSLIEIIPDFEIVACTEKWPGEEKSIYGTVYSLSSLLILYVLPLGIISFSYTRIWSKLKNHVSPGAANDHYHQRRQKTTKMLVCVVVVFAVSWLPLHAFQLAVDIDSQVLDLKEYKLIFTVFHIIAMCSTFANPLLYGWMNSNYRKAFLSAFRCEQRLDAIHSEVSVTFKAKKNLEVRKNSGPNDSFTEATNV
Outline: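 Membranes from KAN-TS cells competed with 125I-PYY in binding buffer containing BSA, test compound at 10 μM final, 1 hr at room temperature. Nonspecific binding defined with 1 μM PYY final. Tubes centrifuged, washed with PBS and bound radioactivity gamma-counted.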

[2] = biological target: human V1a receptor (Homo sapiens, UniProt P37288); assay: V1a functional assay, intracellular calcium mobilization in transfected HEK-293 cells (FLIPR); set-up: expressed in transfected cells; host or cells: HEK-293; conditions: challenge 1 nM AVP; read-out: Cell-Based Functional activity V1a IC50
Chain of human V1a receptor (P37288 whole entry): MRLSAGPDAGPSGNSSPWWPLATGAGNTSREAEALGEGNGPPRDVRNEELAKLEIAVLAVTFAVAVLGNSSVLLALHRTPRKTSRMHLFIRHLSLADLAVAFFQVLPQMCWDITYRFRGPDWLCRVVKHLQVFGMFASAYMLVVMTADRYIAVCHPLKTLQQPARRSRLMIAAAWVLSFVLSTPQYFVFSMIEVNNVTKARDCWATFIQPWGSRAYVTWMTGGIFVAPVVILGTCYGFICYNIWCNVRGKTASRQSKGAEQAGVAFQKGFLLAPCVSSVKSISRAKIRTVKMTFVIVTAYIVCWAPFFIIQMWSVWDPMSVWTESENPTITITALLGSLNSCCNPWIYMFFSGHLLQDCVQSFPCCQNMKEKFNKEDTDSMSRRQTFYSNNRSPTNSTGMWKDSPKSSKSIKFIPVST
Method: V1a, V1b or V2 Functional Assay
HEK-293 cells were grown in DMEM media supplemented with 10% FBS and glutamine (Gibco BRL, Grand Island, N.Y.). Once transfected the cells were passed biweekly by trypsinization and seeded into 96 well plates at 33,000 cells per well. HEK-293 were transfected with human V1a, V1b or V2 DNA using DMRIE-C reagent from Life Technologies, Inc., Grand Island, N.Y. Cells were tested for their responsiveness to vasopressin 48 hours after transfection. Stable lines were generated by selecting cells grown in culture media containing geneticin (500 μg/ml, Life Technologies).
Intracellular calcium mobilization was measured in HEK-293 cells transfected to express either human V1a, oxytocin or V1b receptors. Cells were plated into black 96-well Packard Clear-View plates 4 to 7 days prior to use. The cells were loaded with fluo-3 AM (Molecular Probes, Inc., Eugene, Oreg.) in buffer (25 mM Hepes, 125 mM NaCl, 1 gm/l glucose, 0.1% BSA, 5 mM KCl, 0.5 mM CaCl2, 0.5 mM MgCl2, pH 7.45) containing Pluronic (Molecular Probes) Cells were incubated with 5 μM fluo-3 AM for 1 hour shielded from light at room temperature. Intracellular fluorescence was measured using FLIPR (fluorometric imaging plate reader; Molecular Devices, Inc., Sunnyvale, Calif.). The FLIPR protocol called for images to be collected at one second intervals with 50 μl of the test compound added after the initial 10 images. An additional 70 images were then taken to detect any compound agonistic activity. FLIPR then added 50 μl of agonist peptide and collected a final 40 images for quantitating compound antagonistic activity. V1a- and V1b-expressing HEK cells were challenged with 1 nM and 0.5 nM AVP, respectively. Oxytocin-expressing HEK cells were challenged with 0.5 nM oxytocin (Peninsula Labs).
The data from the cAMP accumulation and the calcium mobilization assays are expressed as IC50 values as determined from dose response curves.

[3] = biological target: human V2 receptor (Homo sapiens, UniProt P30518); assay: V2 binding assay (3H-AVP displacement, HEK-293 membranes); set-up: expressed in transfected cells; host or cells: HEK-293 (membranes); conditions: for inhibition at 1 µM: read-out: V2@1.0, % Inh
Outline: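 Membranes from transfected HEK-293 cells incubated 1 h at room temperature with ³H-AVP (10,000 cpm) in 50 mM Tris, 5 mM MgCl2, 0.1% BSA, pH 7.5 plus protease inhibitors. Non-specific binding set with 1.25 μM AVP. Bound tracer collected on PEI-soaked GF/C filters and counted by scintillation.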

Row | NPY-2@10, % Inh [1] [%] | IC50 [2] [nM] | V2@1.0, % Inh ([3]; 1.0 μM compound) [%] | inhibition at 10 µM [1] [%] | inhibition at 1 µM ([3]; 1.0 μM compound) [%] | IC50 [3] [nM] | Compound
1 | 20 | 482 | 0 |  |  |  | 1-[(N1-Piperidinocarbothioyl-(1-L-carboxymethyl-2-phenylamino)-4-yl]-3-(3-aminopropyl)-1,3-dihydrobenzimidazol-2-one Hydrochloride [Compound 57]
2 |  | 458 |  | 74 | 44 |  | CCN(CC)CCn1c(=O)n(C2CCN(C(=S)NC(c3ccccc3)c3ccccc3)CC2)c2ccccc21 [Compound 35, 1-(N1-Piperidinocarbothioyldiphenylmethylamino-4-yl)-3-(2-diethyaminoethyl)-1,3-dihydrobenzimidazol-2-one]
3 |  | 810 |  | 10 | 0 |  | CCN(CC)CCn1c(=O)n(C2CCN(C(=S)NC(Cc3ccccc3)C(=O)OC)CC2)c2ccccc21 [Compound 42, 1-(N1-Piperidinocarbothioyl-(2-phenyl-1-L-carboxymethyl)amino-4-yl)-3-(2-diethyaminoethyl)-1,3-dihydrobenzimidazol-2-one]
4 |  | 139 |  | 82 |  | 1250 | NCCCn1c(=O)n(C2CCN(C(=S)NC(c3ccccc3)c3ccccc3)CC2)c2ccccc21 [Compound 55, 1-[(N1-Piperidinocarbothioyldiphenylmethylamino)-4-yl]-3-(3-aminopropyl)-1,3-dihydrobenzimidazol-2-one Monohydrochloride]
5 |  | 240 |  | 90 | 18 |  | N=C(N)NCCCn1c(=O)n(C2CCN(C(=S)NC(c3ccccc3)c3ccccc3)CC2)c2ccccc21 [Compound 59, 1-[(N1-Piperidinocarbothioyldiphenylmethylamino)-4-yl]-3-(3-guanidinopropyl)-1,3-dihydrobenzimidazol-2-one]

— patent publication US6653478B2, “Substituted benzimidazol-2-ones as vasopressin receptor antagonists and neuropeptide Y modulators” (Ortho-McNeil Pharmaceutical, Inc., priority 2000, dated 2003)
